{"source": "patent US20130158075A1", "about": "“HETEROCYCLIC COMPOUNDS AS DGAT1 INHIBITORS” (PIRAMAL ENTERPRISES LIMITED, priority 2010, published 2013)", "note": "Structures can show the parent of a compound that is named as a salt."}
{"biological_target": "T1, hDGAT1 (Homo sapiens, UniProt O75907)", "T1 construct": "made in house; host or cells: Sf9 insect cells (baculovirus); microsomal fraction", "T1 sequence (O75907 1-488)": "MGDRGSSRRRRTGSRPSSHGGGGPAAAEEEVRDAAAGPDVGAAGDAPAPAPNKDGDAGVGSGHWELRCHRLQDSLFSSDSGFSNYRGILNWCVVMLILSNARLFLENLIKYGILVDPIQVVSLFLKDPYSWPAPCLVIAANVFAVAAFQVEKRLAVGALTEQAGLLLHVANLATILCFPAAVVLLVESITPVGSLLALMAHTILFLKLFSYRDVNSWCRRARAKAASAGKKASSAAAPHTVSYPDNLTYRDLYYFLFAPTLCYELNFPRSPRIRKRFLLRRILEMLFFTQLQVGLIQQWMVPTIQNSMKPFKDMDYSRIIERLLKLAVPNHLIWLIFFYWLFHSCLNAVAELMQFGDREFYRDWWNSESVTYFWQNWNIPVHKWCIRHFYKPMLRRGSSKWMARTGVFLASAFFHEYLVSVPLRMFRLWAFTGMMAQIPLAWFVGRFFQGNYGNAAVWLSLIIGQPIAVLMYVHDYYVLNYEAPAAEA", "experiment": "In-vitro DGAT1 assay with hDGAT1 microsomes from Sf9 cells (14C oleoyl CoA, scintillation counting)", "type": "biochemical", "conditions": "at 1 μM", "in_short": "(§1)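 Radiolabelled triglyceride formation was measured: heptane extracts were scintillation-counted after a 10-min, 37 °C reaction stopped with alkaline ethanol. Enzyme was human DGAT1 in baculovirus-infected Sf9 microsomal membranes; substrates were 14C oleoyl-CoA plus dioleoylglycerol. Runs were duplicated, and inhibition (%) was related to nM compound concentration.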"}
{"smiles": "O=C(Nc1ccc(-c2noc([C@H]3CC[C@H](C(=O)O)CC3)n2)cc1)Nc1ccccc1Cl", "note": "[Example 219, (1r,4r)-4-(3-(4-(3-(2-Chlorophenyl)ureido)phenyl)-1,2,4-oxadiazol-5-yl)cyclo hexanecarboxylic acid]", "Percentage inhibition of hDGAT1": "+ (20-50% Inhibition)"}
{"smiles": "O=C(Nc1ccc(-c2noc([C@H]3CC[C@H](C(=O)O)CC3)n2)cc1)Nc1ccc(F)cc1F", "note": "[Example 221, (1r,4r)-4-(3-(4-(3-(2,4-Difluorophenyl)ureido)phenyl)-1,2,4-oxadiazol-5-yl)cyclohexanecarboxylic acid]", "Percentage inhibition of hDGAT1": "+ (20-50% Inhibition)"}
{"smiles": "Cc1ccc(NC(=O)Nc2ccc(-c3noc([C@H]4CC[C@H](C(=O)O)CC4)n3)cc2)cc1", "note": "[Example 223, (1r,4r)-4-(3-(4-(3-p-Tolylureido)Phenyl)-1,2,4-oxadiazol-5-yl)cyclohexane carboxylic acid]", "Percentage inhibition of hDGAT1": "+ (20-50% Inhibition)"}
{"smiles": "O=C(Nc1ccc(-c2noc([C@H]3CC[C@H](C(=O)O)CC3)n2)cc1)Nc1cccc(Cl)c1", "note": "[Example 225, (1r,4r)-4-(3-(4-(3-(3-Chlorophenyl)ureido)phenyl)-1,2,4-oxadiazol-5-yl)cyclo hexanecarboxylic acid]", "Percentage inhibition of hDGAT1": "++ (>50 % Inhibition)"}
{"smiles": "O=C(Nc1ccc(-c2noc([C@H]3CC[C@H](C(=O)O)CC3)n2)cc1)Nc1ccc(Cl)cc1Oc1ccccc1", "note": "[Example 227, (1r,4r)-4-(3-(4-(3-(4-Chloro-2-phenoxyphenyl)ureido)phenyl)-1,2,4-oxadiazol-5-yl)cyclohexanecarboxylic acid]", "Percentage inhibition of hDGAT1": "++ (>50 % Inhibition)"}
{"smiles": "CC(C)(C)c1ccc(C(=O)Nc2ccc(-c3noc([C@H]4CC[C@H](C(=O)O)CC4)n3)cc2)cc1", "note": "[Example 229, (1r,4r)-4-(3-(4-(4-tert-Butylbenzamido)phenyl)-1,2,4-oxadiazol-5-yl)cyclo hexane carboxylic acid]", "Percentage inhibition of hDGAT1": "+ (20-50% Inhibition)"}
{"smiles": "O=C(Nc1ccc(-c2noc([C@H]3CC[C@H](C(=O)O)CC3)n2)cc1)c1ccc(-c2ccccc2)cc1", "note": "[Example 231, (1r,4r)-4-(3-(4-Biphenyl-4-ylcarboxamidophenyl)-1,2,4-oxadiazol-5-yl)cyclo hexanecarboxylic acid]", "Percentage inhibition of hDGAT1": "+ (20-50% Inhibition)"}
{"smiles": "O=C(Nc1ccc(-c2noc([C@H]3CC[C@H](C(=O)O)CC3)n2)cc1)c1ccc(OC(F)(F)F)cc1", "note": "[Example 233, (1r,4r)-4-(3-(4-(4-(Trifluoromethoxy)benzamido)phenyl)-1,2,4-oxadiazol-5-yl)cyclohexanecarboxylic acid]", "Percentage inhibition of hDGAT1": "+ (20-50% Inhibition)"}
{"smiles": "CC(C)(CCc1ncc(-c2ccc(NC(=O)Nc3cc(F)cc(F)c3)cc2)s1)C(=O)[O-].[Na+]", "note": "[Example 235A, Sodium salt of 4-(5-(4-(3-(3,5-difluorophenyl)ureido)phenyl)thiazol-2-yl)-2,2-dimethylbutanoate]", "Percentage inhibition of hDGAT1": "++ (>50 % Inhibition)"}
{"smiles": "CC(C)(CCc1ncc(-c2ccc(NC(=O)Nc3cc(F)c(F)cc3F)cc2)s1)C(=O)[O-].[Na+]", "note": "[Example 237A, Sodium salt of 2,2-dimethyl-4-(5-(4-(3-(2,4,5-trifluorophenyl)ureido)phenyl)thiazol-2-yl)butanoate]", "Percentage inhibition of hDGAT1": "++ (>50 % Inhibition)"}
{"biological_target": "T1, hDGAT1", "experiment": "In-vitro DGAT1 assay with hDGAT1 microsomes from Sf9 cells (14C oleoyl CoA, scintillation counting)", "type": "biochemical", "conditions": "read-out: Percentage inhibition of hDGAT1", "in_short": "as §1", "units": {"inhibition at 1 µM": "%"}}
{"smiles": "O=C(Nc1ccc(-c2cnc(C3CCC(C(=O)O)CC3)o2)cc1)Nc1ccccc1Cl", "note": "(stereo not shown) [Example 204, 4-(5-(4-(3-(2-Chlorophenyl)ureido)phenyl)oxazol-2-yl)cyclohexanecarboxylic acid]", "inhibition at 1 µM": "20 to 50"}
{"smiles": "O=C(Nc1ccccc1)Nc1ccc(-c2cnc(C3CCC(C(=O)O)CC3)o2)cc1", "note": "(stereo not shown) [Example 206, 4-(5-(4-(3-Phenylureido)phenyl)oxazol-2-yl)cyclohexanecarboxylic acid]", "inhibition at 1 µM": "20 to 50"}
{"smiles": "O=C(Nc1ccc(-c2cnc(C3CCC(C(=O)O)CC3)o2)cc1)Nc1cccc(Cl)c1", "note": "(stereo not shown) [Example 208, 4-(5-(4-(3-(3-Chlorophenyl)ureido)phenyl)oxazol-2-yl)cyclohexanecarboxylic acid]", "inhibition at 1 µM": "> 50"}
{"smiles": "COc1ccccc1NC(=O)Nc1ccc(-c2cnc(C3CCC(C(=O)O)CC3)o2)cc1", "note": "(stereo not shown) [Example 210, 4-(5-(4-(3-(2-Methoxyphenyl)ureido)phenyl)oxazol-2-yl)cyclohexane carboxylic acid]", "inhibition at 1 µM": "20 to 50"}
{"smiles": "CC(C)(C)c1ccc(C(=O)Nc2ccc(-c3cnc(C4CCC(C(=O)O)CC4)o3)cc2)cc1", "note": "(stereo not shown) [Example 214, 4-(5-(4-(4-Tert-butylbenzamido)phenyl)oxazol-2-yl)cyclohexanecarboxylic acid]", "inhibition at 1 µM": "20 to 50"}
{"smiles": "CC(C)(CCc1ncc(-c2ccc(NC(=O)Nc3cc(F)cc(F)c3)cc2)s1)C(=O)O", "note": "[Example 235, 4-(5-(4-(3-(3,5-Difluorophenyl)ureido)phenyl)thiazol-2-yl)-2,2-dimethyl butanoic acid]", "inhibition at 1 µM": "> 50"}
{"smiles": "CC(C)(CCc1ncc(-c2ccc(NC(=O)Nc3cc(F)c(F)cc3F)cc2)s1)C(=O)O", "note": "[Example 237, 2,2-Dimethyl-4-(5-(4-(3-(2,4,5-trifluorophenyl)ureido)phenyl)thiazol-2-yl)butanoic acid]", "inhibition at 1 µM": "> 50"}
{"smiles": "CC(C)(CCc1ncc(-c2ccc(NC(=O)N3CCCCC3)cc2)s1)C(=O)O", "note": "[Example 239, 2,2-Dimethyl-4-(5-(4-(piperidine-1-carboxamido)phenyl)thiazol-2-yl)butanoic acid]", "inhibition at 1 µM": "20 to 50"}
{"smiles": "CC(C)(CCc1ncc(-c2ccc(NC(=O)N3CCOCC3)cc2)s1)C(=O)O", "note": "[Example 241, 2,2-Dimethyl-4-(5-(4-(morpholine-4-carboxamido)phenyl)thiazol-2-yl)butanoic acid]", "inhibition at 1 µM": "20 to 50"}
{"smiles": "CN1CCN(C(=O)Nc2ccc(-c3cnc(CCC(C)(C)C(=O)O)s3)cc2)CC1", "note": "[Example 243, 2,2-Dimethyl-4-(5-(4-(4-methylpiperazine-1-carboxamido)phenyl)thiazol-2-yl)butanoic acid hydrochloride]", "inhibition at 1 µM": "20 to 50"}
{"smiles": "CC(C)(CCc1ncc(-c2ccc(NC(=O)Nc3ccc4c(c3)OCCO4)cc2)s1)C(=O)O", "note": "[Example 245, 4-(5-(4-(3-(2,3-Dihydrobenzo[b][1,4]dioxin-6-yl)ureido)phenyl)thiazol-2-yl)-2,2-dimethylbutanoic acid]", "inhibition at 1 µM": "> 50"}
{"smiles": "CC(C)(CCc1ncc(-c2ccc(NC(=O)Nc3nnn[nH]3)cc2)s1)C(=O)O", "note": "[Example 247, 4-(5-(4-(3-(1H-tetrazol-5-yl)ureido)phenyl)thiazol-2-yl)-2,2-dimethylbutanoic acid]", "inhibition at 1 µM": "20 to 50"}
{"smiles": "COCCNC(=O)Nc1ccc(-c2cnc(CCC(C)(C)C(=O)O)s2)cc1", "note": "[Example 249, 4-(5-(4-(3-(2-methoxyethyl)ureido)phenyl)thiazol-2-yl)-2,2-dimethylbutanoic acid]", "inhibition at 1 µM": "20 to 50"}
{"smiles": "CC(C)(CCc1ncc(-c2ccc(NC(=O)NC3Cc4ccccc4C3)cc2)s1)C(=O)O", "note": "[Example 251, 4-(5-(4-(3-(2,3-Dihydro-1H-inden-2-yl)ureido)phenyl)thiazol-2-yl)-2,2-dimethyl butanoic acid]", "inhibition at 1 µM": "> 50"}
{"smiles": "CC(C)(CCc1ncc(-c2ccc(NC(=O)Nc3cc(F)c(F)c(F)c3)cc2)s1)C(=O)O", "note": "[Example 255, 2,2-dimethyl-4-(5-(4-(3-(3,4,5-trifluorophenyl)ureido)phenyl)thiazol-2-yl)butanoic acid]", "inhibition at 1 µM": "> 50"}
